Data from the NIST ThermoML archive (doi:10.1021/je800628a).
Numbers after ± are expanded uncertainties.

Tests used:
[1] = Crystal; DTA
[2] = Molar enthalpy of transition or fusion; details: Crystal; DSC

Normal melting temperature [1]: 83.0 ± 1.1 °C
Molar enthalpy of transition or fusion [2]: 4.26 ± 0.131 kcal/mol
SMILES: c1ccc2ccccc2c1 [naphthalene]
